These results are taken from patent US12679851B2, “Methyl-substituted benzobisoxazole compound and use thereof” (TONGHUA DONGBAO PHARMACEUTICAL CO., LTD., priority 2020, dated 2026).

The target of one data set is GLP-1 receptor (Homo sapiens, UniProt P43220). Nature of the data set: Cell activity test in vitro (cAMP detection, GLP-1 HEK293 cells). Format: cell-based. The following applies: HEK293 host cell. The protocol:
The cells were constructed by Wuxi New Drug Development Co., Ltd. Shanghai.
The compound was formulated with DMSO to a working concentration of 30 μM. In this test, the usage amount of each sample was 5 μL.
The pH was adjusted to 7.4 and the volume was fixed to 25 mL with HBSS 1×.
Preparation of cAMP detection reagent: 250 μL of cAMP-D2 and 250 μL of anti-cAMP cryptate reagent were added to 4 mL of lysis buffer, and mixed gently.
The test compound was diluted 3 times by 10 points with a starting concentration of 30 μM, and the dilutions were completed by Bravo.
The reference compound exenatide was diluted 3 times by 10 points with a starting concentration of 500 nM, and the dilutions were completed by Bravo.
• 1) 100 nL of compound was transferred to OptiPlate-384 plate using Echo. • 2) OptiPlate-384 plate was centrifuged at 1000 rpm for 5 seconds. c) Preparation of cell suspension • 1) A GLP-1 cell cryopreservation tube was quickly thawed in 37° C. warm water. • 2) The cell suspension was transferred to a Transfer 15 mL of centrifuge tube and gently rinsed with 10 mL of HBSS. • 3) The centrifuge tube was centrifuged at 1000 rpm at room temperature for 1 minute. • 4) The supernatant was discarded. • 5) The cells at the bottom were gently dispersed and gently rinsed with 10 mL of HBSS, then the cells were centrifuged for sedimentation, and finally the cells were re-suspended in experimental buffer. • 6) Cell density and activity were measured by using Vi-cell. • 7) The concentration of GLP-1 cells was diluted to 2.0*10^5/mL with the experimental buffer. • 8) […] of diluted cell suspension was transferred into OptiPlate-384 plate. • 9) The cells were incubated at room temperature for 30 minutes. d) Addition of detection reagents: • 1) 10 μL of 800 nM gradient diluted cAMP standard was added to the empty well of OptiPlate-384 plate. • 2) 10 μL of cAMP detection reagent was added. • 3) OptiPlate-384 plate was covered with TopSeal-A film and incubated for 60 min at room temperature.
The TopSeal-A was removed, and the EnVision reading was performed.

The next data set deals with T1, CYP1A2 (Homo sapiens, UniProt P05177).
T1 construct: from tissue; host or cells: human liver microsomes
T1 sequence (P05177 1-516): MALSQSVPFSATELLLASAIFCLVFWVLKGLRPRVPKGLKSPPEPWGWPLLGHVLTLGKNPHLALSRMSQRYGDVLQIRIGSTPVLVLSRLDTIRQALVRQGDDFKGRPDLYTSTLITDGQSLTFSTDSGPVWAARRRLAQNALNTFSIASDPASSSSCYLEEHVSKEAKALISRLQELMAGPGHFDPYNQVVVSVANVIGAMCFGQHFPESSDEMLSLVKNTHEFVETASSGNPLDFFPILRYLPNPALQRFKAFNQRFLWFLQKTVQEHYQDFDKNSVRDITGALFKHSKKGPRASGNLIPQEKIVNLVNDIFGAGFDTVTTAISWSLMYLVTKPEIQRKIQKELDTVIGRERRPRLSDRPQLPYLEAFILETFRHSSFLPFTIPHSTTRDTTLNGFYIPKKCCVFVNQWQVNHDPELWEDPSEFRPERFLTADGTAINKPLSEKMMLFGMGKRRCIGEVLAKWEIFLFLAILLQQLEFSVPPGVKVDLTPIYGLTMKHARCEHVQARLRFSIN
Put plainly: Cytochrome P450 isoenzyme inhibition, human liver microsomes. Format: in vitro ADME. The procedure:
(§1) To test the inhibitory effects of the test compounds on the activities of human liver microsomal cytochrome P450 isoenzymes (CYP1A2, CYP2C9, CYP2C19, CYP2D6 and CYP3A4).
(§2) Firstly, the test compound (10.0 mM) was diluted in gradient to prepare a working solution (100× final concentration), and the working solution concentrations were 5.00, 1.50, 0.500, 0.150, 0.0500, 0.0150 and 0.00500 mM respectively. At the same time, the working solution of each positive inhibitor and its specific substrate mixture of P450 isoenzymes (CYP1A2, CYP2C9, CYP2C19, CYP2D6 and CYP3A4) was prepared; the human liver microsomes stored in the refrigerator below −60° C. were thawed on ice. When the human liver microsomes were completely dissolved, then diluted with potassium phosphate buffer (PB) to prepare a working solution with a certain concentration (0.253 mg/mL).
(§3) Firstly, 20.0 μL of substrate mixture was added to the reaction plate (20.0 μL of PB was added to the blank well), then 158 μL of human liver microsome working solution was added to the reaction plate, and the reaction plate was placed on ice for later use. At this time, 2.00 μL of test compound (N=1) and specific inhibitor (N=2) of each concentration were added to the corresponding well, and the group without inhibitor (test compound or positive inhibitor) was added with the corresponding organic solvent as a of control sample (control sample of test compound was dimethyl sulfoxide:methanol=1:1, positive control samples were all dimethyl sulfoxide:methanol=1:9). After pre-incubation in 37° C. water bath for 10 minutes, 20.0 μL of a coenzyme factor (NADPH) solution was added to the reaction plate and incubated in 37° C. water bath for 10 minutes. Then 400 μL of pre-cooled acetonitrile solution (internal standard containing 200 ng/mL tolbutamide and labetalol) was added to stop the reaction; the reaction plate was placed in a shaker and shaken for 10 min to mix evenly. Then the reaction plate was centrifuged at 4° C. and 4000 rpm for 20 min. 200 μL of supernatant was taken and added to 100 μL of water for sample dilution. Finally, the plate was sealed, shaken for 10 minutes to mix evenly for LC/MS/MS detection.

A further data set deals with T2, CYP2C9 (Homo sapiens, UniProt P11712).
T2 construct: from tissue; host or cells: human liver microsomes
Described as above. It is filed as in vitro ADME. The protocol: as §1, §2, §3

In a further data set the target is T3, CYP3A4 (Homo sapiens, UniProt P08684).
T3 construct: from tissue; host or cells: human liver microsomes
Described as above. It is filed as in vitro ADME. The following applies: CYP3A4-M. The procedure: as §1, §2, §3

A further data set concerns the target T4, CYP2D6 (Homo sapiens, UniProt P10635).
T4 construct: from tissue; host or cells: human liver microsomes
The data set is described as above. It is filed as in vitro ADME. The procedure:
as §1, §2, §3

The target in data set [1] is T5, CYP2C19 (Homo sapiens, UniProt P33261).
T5 construct: human liver microsomes (HLM) were used as the incubation system; from tissue; host or cells: human liver microsomes
The data set is described as above. Format: in vitro ADME. The protocol:
as §1, §2, §3

Data set [2] is described as follows: Cynomolgus monkey in vivo DMPK study. The following applies: male cynomolgus monkeys, single oral 0.5 mg/kg. The protocol: Male cynomolgus monkeys were used as test animals, and the plasma concentration of the compound was determined after a single oral administration and the pharmacokinetic behavior was evaluated.
Two healthy male cynomolgus monkeys (fasting) were selected as the oral group. Oral vehicle was 20% hydroxypropyl-p-cyclodextrin aqueous solution. After the test compound was mixed with the vehicle, vortexed and sonicated to prepare 0.1 mg/mL approximately clear solution. The oral dosage of cynomolgus monkey was 0.5 mg/kg. After oral administration, whole blood was collected for a certain time to prepare plasma. The drug concentration was analyzed by LC-MS/MS method, and the pharmacokinetic parameters were calculated by Phoenix WinNonlin 6.3.

Data set [3] deals with T5, CYP2C19. Put plainly: Cytochrome P450 isoenzyme time-dependent inhibition, human liver microsomes. It is filed as in vitro ADME. The procedure:
To test the time-dependent inhibitory effect of the test compounds on the activity of human liver microsomal cytochrome P450 isoenzyme CYP2C19.
The experiment was divided into two groups. In the first group, human liver microsomes (HLM) were used as the incubation system, and a series of concentrations of test samples were added to the incubation system, and then coenzyme factor (NADPH) solution was added, and pre-incubated at 37° C. for 30 minutes. After pre-incubation, the probe substrate solution was added, and after incubation for a certain time, the reaction was terminated; the amount of probe substrate metabolites produced in the incubation solution was measured, and the enzyme activity was calculated. The second group of reactions was to use human liver microsomes (HLM) as the incubation system, and a series of concentrations of test samples were added to the incubation system, and then potassium phosphate buffer was added, and pre-incubated at 37° C. for 30 minutes. After pre-incubation, a mixed solution of NADPH and probe substrate was added. After incubation for a certain time, the reaction was terminated, the amount of probe substrate metabolites produced in the incubation solution was measured, and the enzyme activity was calculated.
Firstly, the test compound (10.0 mM) was diluted in gradient to prepare a working solution (100× final concentration), and the working solution concentrations were 5.00, 1.65, 0.500, 0.165, 0.0500, 0.0165 and 0.00500 mM respectively. At the same time, the positive inhibitor of P450 isoenzyme CYP2C19, probe substrate and NADPH working solution were prepared; the human liver microsomes stored in the refrigerator below −60° C. were thawed on ice. When the human liver microsomes were completely dissolved, then diluted with potassium phosphate buffer (PB) to prepare a working solution with a certain concentration (0.169 mg/mL).
Then 147.5 μL of human liver microsome working solution was added to the reaction plate, and the reaction plate was placed on ice for use. […]

T3 sequence (P08684 whole entry): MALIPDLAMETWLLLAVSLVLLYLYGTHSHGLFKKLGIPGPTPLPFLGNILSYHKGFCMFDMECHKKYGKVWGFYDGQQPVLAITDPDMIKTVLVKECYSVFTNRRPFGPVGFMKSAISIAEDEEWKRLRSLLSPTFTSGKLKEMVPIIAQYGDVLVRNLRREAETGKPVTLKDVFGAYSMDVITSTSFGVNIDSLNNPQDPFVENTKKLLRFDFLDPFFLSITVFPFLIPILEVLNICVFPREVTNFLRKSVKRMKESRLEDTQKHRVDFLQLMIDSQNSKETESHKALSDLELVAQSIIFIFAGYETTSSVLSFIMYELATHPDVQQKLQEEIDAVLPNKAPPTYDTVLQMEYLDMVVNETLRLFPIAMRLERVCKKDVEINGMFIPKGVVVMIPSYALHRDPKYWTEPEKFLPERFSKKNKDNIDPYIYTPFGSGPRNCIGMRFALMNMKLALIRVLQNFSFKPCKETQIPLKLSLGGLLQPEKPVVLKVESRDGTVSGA
T2 sequence (P11712 whole entry): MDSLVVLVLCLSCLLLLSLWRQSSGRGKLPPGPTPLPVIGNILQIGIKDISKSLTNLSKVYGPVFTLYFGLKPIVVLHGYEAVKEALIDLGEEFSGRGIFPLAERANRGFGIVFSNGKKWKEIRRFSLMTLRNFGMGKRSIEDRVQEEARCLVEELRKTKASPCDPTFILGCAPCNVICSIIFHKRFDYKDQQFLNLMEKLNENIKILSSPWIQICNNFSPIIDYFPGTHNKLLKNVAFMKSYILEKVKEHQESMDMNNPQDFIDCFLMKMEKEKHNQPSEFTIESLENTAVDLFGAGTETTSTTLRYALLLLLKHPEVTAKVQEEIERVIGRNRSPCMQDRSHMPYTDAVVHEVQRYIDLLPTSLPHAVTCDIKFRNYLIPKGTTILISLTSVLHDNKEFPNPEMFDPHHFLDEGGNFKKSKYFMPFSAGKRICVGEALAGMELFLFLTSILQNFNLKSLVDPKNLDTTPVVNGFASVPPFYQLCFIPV
T4 sequence (P10635 whole entry): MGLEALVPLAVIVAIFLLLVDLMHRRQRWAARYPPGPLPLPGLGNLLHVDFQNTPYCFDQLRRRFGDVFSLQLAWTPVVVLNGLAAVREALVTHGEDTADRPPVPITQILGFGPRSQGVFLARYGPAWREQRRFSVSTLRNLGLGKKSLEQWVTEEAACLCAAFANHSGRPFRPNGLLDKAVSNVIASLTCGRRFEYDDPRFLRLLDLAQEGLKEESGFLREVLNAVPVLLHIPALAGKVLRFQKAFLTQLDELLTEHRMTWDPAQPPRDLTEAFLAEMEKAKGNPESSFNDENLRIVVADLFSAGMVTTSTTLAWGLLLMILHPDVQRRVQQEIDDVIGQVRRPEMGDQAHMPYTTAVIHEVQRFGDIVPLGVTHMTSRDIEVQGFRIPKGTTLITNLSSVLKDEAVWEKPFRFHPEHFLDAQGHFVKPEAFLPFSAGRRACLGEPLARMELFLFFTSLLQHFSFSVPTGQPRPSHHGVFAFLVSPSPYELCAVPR
GLP-1 receptor, sequence (P43220 24-463): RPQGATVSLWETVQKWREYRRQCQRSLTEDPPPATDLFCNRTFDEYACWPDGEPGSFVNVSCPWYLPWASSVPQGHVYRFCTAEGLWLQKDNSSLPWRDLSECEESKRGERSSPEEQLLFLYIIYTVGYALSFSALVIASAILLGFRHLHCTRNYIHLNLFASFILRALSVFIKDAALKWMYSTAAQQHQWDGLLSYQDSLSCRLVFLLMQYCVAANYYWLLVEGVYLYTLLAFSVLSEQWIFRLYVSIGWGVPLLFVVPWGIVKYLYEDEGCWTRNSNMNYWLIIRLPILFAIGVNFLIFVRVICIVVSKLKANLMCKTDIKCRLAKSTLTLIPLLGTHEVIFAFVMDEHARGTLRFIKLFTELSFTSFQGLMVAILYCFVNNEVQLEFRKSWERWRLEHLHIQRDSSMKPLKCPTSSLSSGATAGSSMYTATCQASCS
T5 sequence (P33261 whole entry): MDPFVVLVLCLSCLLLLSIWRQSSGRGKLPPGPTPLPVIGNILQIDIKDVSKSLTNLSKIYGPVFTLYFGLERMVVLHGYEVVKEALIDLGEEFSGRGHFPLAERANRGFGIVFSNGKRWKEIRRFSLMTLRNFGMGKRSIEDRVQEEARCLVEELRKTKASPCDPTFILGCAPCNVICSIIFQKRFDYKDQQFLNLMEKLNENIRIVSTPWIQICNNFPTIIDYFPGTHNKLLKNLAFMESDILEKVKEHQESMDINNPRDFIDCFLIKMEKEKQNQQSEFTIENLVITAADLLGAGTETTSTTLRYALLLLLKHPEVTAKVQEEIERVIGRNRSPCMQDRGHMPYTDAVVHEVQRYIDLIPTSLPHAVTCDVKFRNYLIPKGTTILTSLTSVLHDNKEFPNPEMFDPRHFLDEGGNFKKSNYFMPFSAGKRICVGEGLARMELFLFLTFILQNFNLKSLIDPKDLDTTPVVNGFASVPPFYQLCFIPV

On to `CC1(c2ccc(Cl)cc2F)Oc2cccc(C3CCN(Cc4nc5sc(C(=O)O)cc5n4C[C@@H]4CCO4)CC3)c2O1` (single isomer, unassigned) [Compound 004], for which a half-maximal effect at GLP-1 receptor (EC50) was put at 0.2 nM. For the same compound, the IC50 (in general, the point on the concentration scale where inhibition reaches its midpoint) against CYP1A2 is 43.7 µM; at CYP2C9, 31.9 µM; at CYP3A4, 40.8 µM; on CYP2D6, above 50 µM; at CYP2C19 [1] it was 23.6 µM. In data set [2] (cynomolgus monkey, plasma), the half-life (as a rule, the time in which the quantity being followed falls by half) was 236 min. In addition, in data set [2] (cynomolgus monkey, plasma), the peak level (Cmax) was 132 nM. The “Oral DNAUC” value in data set [2] (DNAUC = AUCPO/Dose) was determined as 1056 nM · h/mpk.
Regarding `CC1(c2ccc(Cl)cc2F)Oc2cccc(C3CCN(Cc4nc5sc(C(=O)O)c(F)c5n4C[C@@H]4CCO4)CC3)c2O1` (single isomer, unassigned) [Compound 006], the EC50 (usually the concentration giving half of the maximal effect) on GLP-1 receptor was found to be 0.39 nM. Also, the IC50 on CYP1A2 is 38.8 µM; against CYP2C9, 21.6 µM; against CYP3A4, 48.7 µM; against CYP2D6, above 50 µM; against CYP2C19 [1], above 50 µM.
Compound `C[C@]1(c2ccc(C#N)cc2F)Oc2cccc(C3=CCN(Cc4nc5sc(C(=O)O)cc5n4C[C@@H]4CCO4)CC3)c2O1` [Compound 011A] came in with a 50% effective concentration (EC50) at GLP-1 receptor of 0.33 nM.
Turning to `CC1(c2ccc(Cl)cc2F)Oc2cccc(N3CCN(Cc4nc5sc(C(=O)O)cc5n4CC4CCO4)CC3)c2O1` (single isomer, unassigned) [Compound 005A], the “Time-dependent inhibition (Yes or No)” value on CYP2C19 [3] is on record as “No”. The IC50 at CYP2C19 [3] (30 min pre-incubation with NADPH) was above 50 µM; against CYP2C19 [3] (30 min pre-incubation without NADPH), 44.3 µM; against CYP1A2 it was above 50 µM; against CYP2C9 it was 30.8 µM; against CYP3A4, above 50 µM; at CYP2D6, above 50 µM. For the same compound, the IC50 on CYP2C19 [1] is above 50 µM. On GLP-1 receptor, this compound yielded an EC50 of 0.15 nM.
On GLP-1 receptor, `C[C@]1(c2ccc(C#N)cc2F)Oc2cccc(C3=CCN(Cc4nc5cc(C(=O)O)sc5n4C[C@@H]4CCO4)CC3)c2O1` [Compound 011B] returned an EC50 of 1.52 nM.
